Assay results from patent US10981894B2, “Melanocortin subtype-2 receptor (MC2R) antagonists and uses thereof” (Crinetics Pharmaceuticals, Inc., priority 2018, dated 2021).

target: hMC2 receptor (Homo sapiens, UniProt Q01718); assay: hMC2 membrane binding assay ([125I]ACTH (1-39) Tyr23, SPA); design: scale not given here; details: crude hMC2R membranes from CRE-bla-CHO-K1 cells expressing hMC2 receptor and hMRAP; [125I]ACTH (1-39) Tyr23 0.2 nM; 1.5 hours at room temperature; read-out: MC2R binding potency
How it was run: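 CRE-bla-CHO-K1 membranes co-expressing hMC2 receptor and hMRAP, preincubated with WGA PVT SPA beads in pH 7.4 HEPES/MgCl2/CaCl2/0.2% BSA buffer. Compounds (typically 0–10,000 nM final) compete with 0.2 nM [125I]ACTH(1-39) Tyr23 for 1.5 h at room temperature. SPA counts give Ki by non-linear regression.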

Sequence of hMC2 receptor (Q01718 whole entry): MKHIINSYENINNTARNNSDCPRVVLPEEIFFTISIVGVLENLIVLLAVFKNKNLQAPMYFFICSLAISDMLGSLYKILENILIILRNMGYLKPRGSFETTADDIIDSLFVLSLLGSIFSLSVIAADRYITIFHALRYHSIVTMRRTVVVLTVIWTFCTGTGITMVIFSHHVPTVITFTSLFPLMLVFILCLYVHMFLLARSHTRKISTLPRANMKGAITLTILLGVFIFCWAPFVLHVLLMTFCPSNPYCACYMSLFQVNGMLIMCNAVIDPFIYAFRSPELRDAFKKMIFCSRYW
Sequence of hMC2 receptor (Q8TCY5 whole entry partner): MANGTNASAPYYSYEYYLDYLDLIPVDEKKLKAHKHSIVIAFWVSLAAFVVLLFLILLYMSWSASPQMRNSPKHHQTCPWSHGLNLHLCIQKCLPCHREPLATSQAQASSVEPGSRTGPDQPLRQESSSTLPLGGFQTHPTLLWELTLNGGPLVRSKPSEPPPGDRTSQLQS

Row | SMILES | Ki [nM]
1 | CCOc1ncccc1-c1ccc(N2CCN(C(=O)c3ccc(OC)nc3C(F)(F)F)C[C@H]2CC)c(C(=O)NCC2CN(C)C2)n1 [Compound 1-242, 2′-ethoxy-5-[(2R)-2-ethyl-4-[6-methoxy-2-(trifluoromethyl)pyridine-3-carbonyl]piperazin-1-yl]-N-[(1-methylazetidin-3-yl)methyl]-[2,3′-bipyridine]-6-carboxamide] | < 10
2 | CCOc1ccccc1-c1ccc(N2CCN(C(=O)N3CCCC3C(C)(C)C)C[C@H]2CC)c(C(=O)N[C@@H]2CCNC2)n1 (stereo partly drawn) [Compound 1-305, 3-[(2R)-4-(2-tert-butylpyrrolidine-1-carbonyl)-2-ethylpiperazin-1-yl]-6-(2-ethoxyphenyl)-N-[(3R)-pyrrolidin-3-yl]pyridine-2-carboxamide] | < 10
3 | CCOc1ncccc1-c1ccc(N2CCN(C(=O)C3(C(F)(F)F)CC4CCC3C4)C[C@H]2CC)c(C(=O)NCC2CN(C)C2)n1 (stereo partly drawn) [Compound 1-339, 2′-ethoxy-5-[(2R)-2-ethyl-4-[2-(trifluoromethyl)bicyclo[2.2.1]heptane-2-carbonyl]piperazin-1-yl]-N-[(1-methylazetidin-3-yl)methyl]-[2,3′-bipyridine]-6-carboxamide] | < 10
4 | CCOc1ncccc1-c1ccc(N2CCN(C(=O)C3(C(F)(F)F)CCCC3)C[C@H]2CC)c(C(=O)NC[C@@H]2CCCN2)n1 [Compound 1-325, 2′-ethoxy-5-[(2R)-2-ethyl-4-[1-(trifluoromethyl)cyclopentanecarbonyl]piperazin-1-yl]-N-{[(2S)-pyrrolidin-2-yl]methyl}-[2,3′-bipyridine]-6-carboxamide] | < 10
5 | CCOc1ncccc1-c1ccc(N2CCN(C(=O)c3ccc(Cl)cc3C(F)(F)F)C[C@H]2CC)c(C(=O)N[C@@H]2CN3CCC2CC3)n1 [Compound 1-398, N-[(3S)-1-azabicyclo[2.2.2]octan-3-yl]-5-[(2R)-4-[4-chloro-2-(trifluoromethyl)benzoyl]-2-ethylpiperazin-1-yl]-2′-ethoxy-[2,3′-bipyridine]-6-carboxamide] | < 10
6 | CCOc1ncccc1-c1ccc(N2CCN(C(=O)C34CCC(C(F)(F)F)(CC3)C4)C[C@H]2CC)c(C(=O)NCC2CN(C)C2)n1 [Compound 1-395, 2′-ethoxy-5-[(2R)-2-ethyl-4-[4-(trifluoromethyl)bicyclo[2.2.1]heptane-1-carbonyl]piperazin-1-yl]-N-[(1-methylazetidin-3-yl)methyl]-[2,3′-bipyridine]-6-carboxamide] | < 10
7 | CCOc1ncccc1-c1ccc(N2CCN(C(=O)C3(C(F)(F)F)CCC3)C[C@H]2CC)c(C(=O)NC[C@@H]2CCN2C)n1 [Compound 1-390, 2′-ethoxy-5-[(2R)-2-ethyl-4-[1-(trifluoromethyl)cyclobutanecarbonyl]piperazin-1-yl]-N-{[(2S)-1-methylazetidin-2-yl]methyl}-[2,3′-bipyridine]-6-carboxamide] | 10 to 100
8 | CCOc1ccccc1-c1ccc(N2CCN(C(=O)C3(C(F)(F)F)CCCC3)C[C@H]2CC)c(C(=O)N[C@H]2CCN(C)C2)n1 [Compound 1-401, 6-(2-ethoxyphenyl)-3-[(2R)-2-ethyl-4-[1-(trifluoromethyl)cyclopentanecarbonyl]piperazin-1-yl]-N-[(3S)-1-methylpyrrolidin-3-yl]pyridine-2-carboxamide] | < 10
9 | CCOc1ccccc1-c1ccc(N2CCN(C(=O)N3CCC[C@H]3C(F)(F)F)C[C@H]2CC)c(C(=O)N[C@@H]2CCNC2)n1 [Compound 1-342, 6-(2-ethoxyphenyl)-3-[(2R)-2-ethyl-4-[(2S)-2-(trifluoromethyl)pyrrolidine-1-carbonyl]piperazin-1-yl]-N-[(3R)-pyrrolidin-3-yl]pyridine-2-carboxamide] | < 10
10 | CCOc1ccc(C(=O)N2CCN(c3ccc(-c4cccnc4OCC)nc3C(=O)NC[C@@H]3CCN3)[C@H](CC)C2)c(C(F)(F)F)n1 [Compound 1-256, N-{[(2S)-azetidin-2-yl]methyl}-2′-ethoxy-5-[(2R)-4-[6-ethoxy-2-(trifluoromethyl)pyridine-3-carbonyl]-2-ethylpiperazin-1-yl]-[2,3′-bipyridine]-6-carboxamide] | < 10

Results, then the compound that gave them:

Row | Ki [nM] | SMILES
11 | < 10 | CCOc1ncccc1-c1ccc(N2CCN(C(=O)c3ccc(C)cc3Cl)C[C@H]2CC)c(C(=O)NCCNC)c1F [Compound 1-113, 6-[(2R)-4-(2-chloro-4-methylbenzoyl)-2-ethylpiperazin-1-yl]-3-(2-ethoxypyridin-3-yl)-2-fluoro-N-[2-(methylamino)ethyl]benzamide]
12 | < 10 | CCOc1ccccc1-c1ccc(N2CCN(C(=O)c3ccc(F)cc3-c3ccc(CN)cc3)C[C@H]2CC)c(C(=O)NCCN)c1 [Compound 1-17, N-(2-aminoethyl)-4-[(2R)-4-[4′-(aminomethyl)-5-fluoro-[1,1′-biphenyl]-2-carbonyl]-2-ethylpiperazin-1-yl]-2′-ethoxy-[1,1′-biphenyl]-3-carboxamide]
13 | < 10 | CCOc1ncccc1-c1ccc(N2CCN(C(=O)c3ccc(Cl)cc3C(F)(F)F)C[C@H]2CC)c(C(=O)N[C@H]2CCN(C)C2)n1 [Compound 1-215, 5-[(2R)-4-[4-chloro-2-(trifluoromethyl)benzoyl]-2-ethylpiperazin-1-yl]-2′-ethoxy-N-[(3S)-1-methylpyrrolidin-3-yl]-[2,3′-bipyridine]-6-carboxamide]
14 | < 10 | CCOc1ncccc1-c1ccc(N2CCN(C(=O)c3ccc(OC)nc3C(F)(F)F)C[C@H]2CC)c(C(=O)NCCNC)c1F [Compound 1-164, 3-(2-ethoxypyridin-3-yl)-6-[(2R)-2-ethyl-4-[6-methoxy-2-(trifluoromethyl)pyridine-3-carbonyl]piperazin-1-yl]-2-fluoro-N-[2-(methylamino)ethyl]benzamide]
15 | < 10 | CCOc1ccc(C(=O)N2CCN(c3ccc(-c4cccnc4OCC)nc3C(=O)NCCN(C)C)[C@H](CC)C2)c(C(F)(F)F)n1 [Compound 1-207, N-[2-(dimethylamino)ethyl]-2′-ethoxy-5-[(2R)-4-[6-ethoxy-2-(trifluoromethyl)pyridine-3-carbonyl]-2-ethylpiperazin-1-yl]-[2,3′-bipyridine]-6-carboxamide]
16 | 10 to 100 | CC[C@@H]1CN(C(=O)c2ccc(C(F)(F)F)cc2Cl)CCN1c1ccc(-c2cccc(F)c2F)cc1C(=O)NCCN [Compound 1-1, N-(2-aminoethyl)-4-[(2R)-4-[2-chloro-4-(trifluoromethyl)benzoyl]-2-ethylpiperazin-1-yl]-2′,3′-difluoro-[1,1′-biphenyl]-3-carboxamide]
17 | < 10 | CCOc1ncccc1-c1ccc(N2CCN(C(=O)c3ccc(C)cc3Cl)C[C@H]2CC)c(C(=O)N[C@@H]2CCNC2)c1F [Compound 1-110, 6-[(2R)-4-(2-chloro-4-methylbenzoyl)-2-ethylpiperazin-1-yl]-3-(2-ethoxypyridin-3-yl)-2-fluoro-N-[(3R)-pyrrolidin-3-yl]benzamide]
18 | 10 to 100 | CCOc1cnccc1-c1ccc(N2CCN(C(=O)c3ccc(C(F)(F)F)cc3Cl)C[C@H]2CC)c(C(=O)NCCN)c1 [Compound 1-33, N-(2-aminoethyl)-2-[(2R)-4-[2-chloro-4-(trifluoromethyl)benzoyl]-2-ethylpiperazin-1-yl]-5-(3-ethoxypyridin-4-yl)benzamide]
19 | < 10 | CCOc1ncccc1-c1ccc(N2CCN(C(=O)c3ccc(Cl)cc3Cl)C[C@H]2CC)c(C(=O)N[C@@H]2CCNC2)n1 [Compound 1-267, 5-[(2R)-4-(2,4-dichlorobenzoyl)-2-ethylpiperazin-1-yl]-2′-ethoxy-N-[(3R)-pyrrolidin-3-yl]-[2,3′-bipyridine]-6-carboxamide]
